Like-named read-outs stand apart in the source and are kept apart here. Ends that are not written are not given here.

One data set concerns sheep erythrocytes. As to conditions: sheep erythrocytes (10%). The protocol: (§1) Initially, characterization of Lfcin (17–30) was performed by determining its minimum inhibitory concentration (MIC), minimum bactericidal concentration (MBC), in vitro stability assays (high-end temperatures, the physiological concentration of cationic salts and proteases), and in vitro safety assays (sheep erythrocyte hemolysis and secondary cell line cytotoxicity) (Supplementary Files S1–S3). The membrane permeabilization effect of Lfcin (17–30) was assessed by flow cytometry, whereas outer and inner membrane permeability of MDR-EAEC strains treated with 1 × and 2 × MIC levels of Lfcin (17–30) was carried out based on the nitrocefin activity as well as the release of cytoplasmic β-galactosidase activity, respectively (Supplementary File S4). Further, Lfcin (17–30) was evaluated for its antibacterial activity against beneficial lactobacilli (L. acidophilus MTCC 10307 and L. rhamnosus MTCC 1408) (Supplementary File S5).
(§2) To determine the safety of Lfcin (17-30) on host cells, a haemolytic assay using sheep erythrocytes as well as cytotoxicity assay using secondary cell lines were performed with 1X, 2X and 4X MICs of Lfcin (17-30), respectively. In brief, haemolytic assay was performed, wherein the haemolytic activity of Lfcin (17-30) was tested by determining the extent of haemoglobin release from sheep erythrocytes (10%). Further, the safety aspect of Lfcin (17-30) was evaluated on secondary cell line viz., human epithelioma cell line (HEp-2), and murine macrophage cell line (RAW 264.7) by performing MTT [3-(4,5-dimethylthiazole-2-yl)-2,5-diphenyl tetrazolium bromide] assay.

In the next data set the test system is HEp-2 cells. As to conditions: MTT. The protocol:
as §1, §2

The next data set concerns RAW 264.7 cells. To be noted: MTT. The protocol: as §1, §2
The subject of a further data set is G. mellonella larvae. Put plainly: LDH cytotoxicity assay of larval haemolymph. It counts as in vivo, Galleria mellonella. The protocol:
Galleria mellonella larvae were grouped 40 per group for in vivo antimicrobial testing of Lfcin (17–30) as follows: group I (MDR-EAEC infection control), groups II and III (infection + treatment groups), group IV (PBS control), and group V [Lfcin(17–30) control]. Optimized LD50 dose of MDR-EAEC (a cocktail of three strains) was administered to larvae of groups I to III, while MIC dose of Lfcin (17–30) and Meropenem was administered 3 h post-infection (pi) in groups II and III, respectively. Larval group IV was injected with sterile PBS, whereas MIC dose of Lfcin (17–30) was administered in group V.
The larvae were then observed for their survival rate, melanization (Supplementary Information S7), MDR-EAEC counts (Supplementary Information S8), hemocyte density (Supplementary Information S9) ([Wand et al., 2013]), lactate dehydrogenase (LDH) cytotoxicity assay (Supplementary Information S10) ([Gibreel and Upton, 2013]), and histopathology (Supplementary Information S11) ([Perdoni et al., 2014]), at an interval of 6 h till 24 h, followed by 24-h interval up to 120 h pi.
G. mellonella (n=3 larvae per group) were analysed for the production of LDH, as a marker of cell damage, at an interval of 6 h pi for 24 h, followed by 24 h interval till 96 h pi using QuantiChrom LDH cytotoxicity assay kit, according to the manufacturer’s instructions. The positive and negative controls used in this study were […]. The absorbance was read using ELISA plate reader at 500 nm; the haemolymph from untreated larvae served as background control and the cytotoxicity was calculated as, Cytotoxicity (%) = (ODSample - ODControl)/ (ODTotal Lysis - ODControl) x 100, wherein, sample is the control absorbance of treated cell; control is the experimental absorbance of the untreated cell control and total lysis is the absorbance of Triton X-100 treated cells.

Take FKCRRWQWRMKKLG [Lfcin (17–30)]: the “Haemolysis (%)” value in the data set with sheep erythrocytes (MIC (1X)) and in the data set with sheep erythrocytes (MIC (2X)) was “non-hemolytic” each time. In addition, the “cytotoxicity / morphological changes” value in the data set on HEp-2 cells (HEp-2, 1× and 2× MIC) is reported as “remarkable morphological changes were not evident”; in the data set on RAW 264.7 cells (RAW 264.7, 1× and 2× MIC), “remarkable morphological changes were not evident”. Moreover, the cytotoxicity entry in the data set on HEp-2 cells (HEp-2, 4× MIC) is on record as “moderate to higher cytotoxicity”; with RAW 264.7 cells (RAW 264.7, 4× MIC), “moderate to higher cytotoxicity”. Further, the LDH cytotoxicity result was “cytotoxicity remained increased up to 48 h pi” with G. mellonella larvae (infected larvae treated 3 h pi) and “significantly increased cytotoxicity was observed at 6 to 18 h pi” in the data set with G. mellonella larvae (uninoculated larvae treated with MIC dose).

Values taken from publication PMC7531601, “Exploiting Lactoferricin (17–30) as a Potential Antimicrobial and Antibiofilm Candidate Against Multi-Drug-Resistant Enteroaggregative Escherichia coli” (Frontiers in Microbiology, 2020).
